Like-named read-outs stand apart in the source and are kept apart here.
Columns and labels:
[1] = aqueous dioxane, tri-(dicyclohexylcarbinyl) borate = 1, cited from earlier work
[2] = base catalysed hydrolysis, 60% aqueous dioxane at 21°; cited from earlier work
[3] = Pseudo three-dimensional hydrolysis test, sample layered on distilled water; type: physicochemical; settings: sample layered on distilled water in a test tube; 20 mls sample layered on 10 mls distilled water in 19 mm test tube
Protocol: A pseudo three-dimensional test was made by taking 10 mls of distilled water and placing in a 19 mm diameter test tube. 20 mls of sample was then layered on the water; the rate of hydrolysis was then measured. This was done by taking 2 ml samples from the test tube over time, refluxing and titrating the 2 ml samples to get the concentration. The test was with n-butyl di-n-propyl borate, which should have similar kinetic properties to tri-n-propyl borate and tri-n-butyl borate. The test was also done with tri-n-octyl borate.
It can be seen that there is an exponential difference in the half-life when changing the conditions of hydrolysis. For the commercial method of which the patent covers, the hydrolysis rate is slow enough to give consistent uptake of product in the timber and provide stable solution concentration.

Structure (SMILES) | Relative rate of hydrolysis [1] | further results
c1ccc([C@H]2CCCC[C@H]2OB(O[C@@H]2CCCC[C@@H]2c2ccccc2)O[C@@H]2CCCC[C@@H]2c2ccccc2)cc1 (relative stereo) [Tri-(cis-2-phenylcyclohexyl) borate] | 28.2 | 
CCCC1OB(OCC(CC)C(CCC)OB2OCC(CC)C(CCC)O2)OCC1CC (centres unmarked) [Tri-(octylene glycol) biborate] | 3.92 × 10^5 | 
CCCCCCCCOB(OCCCCCCCC)OCCCCCCCC [Tri-n-octyl borate] | 3.67 × 10^4 | Half-life [2]: 16.0 s
CC(C)CC(C)CC(CC(C)C)OB(OC(CC(C)C)CC(C)CC(C)C)OC(CC(C)C)CC(C)CC(C)C (centres unmarked) [Tri-(2,6,8-trimethyl-4-nonyl) borate] | 4.83 | 
CC(C)CC(C)OB(OC(C)CC(C)C)OC(C)CC(C)C (centres unmarked) [Tri-(methylisobutylcarbinyl) borate] | 2430 | 
C1CCC(C(OB(OC(C2CCCCC2)C2CCCCC2)OC(C2CCCCC2)C2CCCCC2)C2CCCCC2)CC1 [Tri-(dicyclohexylcarbinyl) borate] | 1 | 
CCCCCOB(OCCCCC)OCCCCC [Tri-n-amyl borate] | 5.87 × 10^5 | Half-life [2]: 1.0 s
CC(C)(C)OB(OC(C)(C)C)OC(C)(C)C [Tri-t-butyl borate] | 1370 | 
COB(OC)OC [Trimethyl borate] |  | Half-life(sec.) [2]: Too fast to measure
CCCCOB(OCCCC)OCCCC [Tri-n-butyl borate] |  | Half-life(sec.) [2]: Too fast to measure; Half-life [3]: 89 h
C1CCC(OB(OC2CCCCC2)OC2CCCCC2)CC1 [Tri-(2-cyclohexyl) borate] | 3.67 | 
CCCCC(CC)COB(OCC(CC)CCCC)OCC(CC)CCCC (centres unmarked) [Tri-(2-ethylhexyl) borate] | 2.77 × 10^3 | 
CCC(C)(C)OB(OC(C)(C)CC)OC(C)(C)CC [Tri-t-amyl borate] | 449 | 
CCCCC(CC)OB(OC(CC)CCCC)OC(CC)CCCC (centres unmarked) [Tri-3-heptyl borate] | 415 | 
C#CC1(OB(OC2(C#C)CCCCC2)OC2(C#C)CCCCC2)CCCCC1 [Tri-(1-ethynylcyclohexyl) borate] | 4.29 × 10^4 | 
CCCOB(OCCC)OCCC [Tri-n-propyl borate] |  | Half-life(sec.) [2]: Too fast to measure
CCCCCCCCCCCCCCCCCCOB(OCCCCCCCCCCCCCCCCCC)OCCCCCCCCCCCCCCCCCC [Tristearyl borate] | 2.71 × 10^4 | Half-life [2]: 21.7 s
CCOB(OCC)OCC [Triethyl borate] |  | Half-life(sec.) [2]: Too fast to measure
CCCCCCOB(OCCCCCC)OCCCCCC [Tri-hexyl borate] | 2.02 × 10^5 | Half-life [2]: 2.9 s
c1ccc(C2CCCCC2OB(OC2CCCCC2c2ccccc2)OC2CCCCC2c2ccccc2)cc1 (centres unmarked) [Tri-(2-phenylcyclohexyl) borate] | 34.1 | 
CC(C)CC(CC(C)C)OB(OC(CC(C)C)CC(C)C)OC(CC(C)C)CC(C)C [Tri-(diisobutylcarbinyl) borate] | 5.86 | 
CCCCCCC(C)OB(OC(C)CCCCCC)OC(C)CCCCCC (centres unmarked) [Tri-2-octyl borate] | 4.33 × 10^3 | 
CCCCCCCC/C=C\CCCCCCCCOB(OCCCCCCCC/C=C\CCCCCCCC)OCCCCCCCC/C=C\CCCCCCCC [Trioleyl borate] | 3.57 × 10^4 | 
CCC(C)OB(OC(C)CC)OC(C)CC (centres unmarked) [Tri-s-butyl borate] | 1.68 × 10^5 | 
c1ccc([C@@H]2CCCC[C@H]2OB(O[C@@H]2CCCC[C@H]2c2ccccc2)O[C@@H]2CCCC[C@H]2c2ccccc2)cc1 (relative stereo) [Tri-(trans-2-phenylcylohexyl) borate] | 40.0 | 
CCCCCCCCCCCCOB(OCCCCCCCCCCCC)OCCCCCCCCCCCC [Tri-n-dodecyl borate] | 2.77 × 10^4 | Half-life [2]: 21.3 s; Relative rate of hydrolysis ([1]; listed as Tri-dodecyl borate): 2.77×10^4
CCC(CC)OB(OC(CC)CC)OC(CC)CC [Tri-3-pentyl borate] | 483 | 
CCCCOB(OCCC)OCCC [n-butyl di-n-propyl borate] |  | Half-life [3]: 6.5 h

Source: US20090069271A1, “WOOD TREATMENT” (priority 2005, published 2009)
